Test results published in ChEMBL document CHEMBL1146649, “New highly active taxoids from 9 beta-dihydrobaccatin-9,10-acetals. Part 5” (2004).
≈ marks a conversion by molar mass, not a printed value. Blank lines part the entries; values can stand above or below the compound they belong to.

Columns and labels:
P388 = assay: Concentration required to inhibit mouse P388 cell line growth by 50% at 72 hr continuous exposure; assay type: functional; settings: P388, 72 h
PC-6 [1] = assay: Concentration required to inhibit human PC-6 cell line growth by 50% at 72 hr continuous exposure; assay type: functional; settings: PC-6, 72 h
PC-6 [2] = assay: Concentration that inhibited the growth of PC-6/VCR29-9 cells by 50% at 72 hr continuous exposure; assay type: functional; settings: Homo sapiens, PC-6, 72 h
PC-6 [3] = assay: Concentration required to inhibit human PC-6/VP1-1 cell line growth by 50% at 72 hr exposure; assay type: functional; settings: PC-6, 72 h
PC-12 = assay: Concentration required to inhibit human PC-12 cell line growth by 50% at 72 hr continuous exposure; assay type: functional; settings: PC-12, 72 h
Mus musculus [4] = assay: Maximum rate of body weight loss after intravenous administration of 11.9 mg/kg of compound in mice; <0 indicates no weight loss; assay type: functional
Mus musculus [5] = assay: Maximum rate of body weight loss after intravenous administration of 17.8 mg/kg of compound in mice; assay type: functional
Mus musculus [6] = assay: Maximum rate of body weight loss after peroral administration of 17.8 mg/kg of compound in mice; assay type: functional; settings: route oral
Mus musculus [7] = assay: Maximum rate of body weight loss after peroral administration of 26.7 mg/kg of compound in mice; assay type: functional; settings: route oral
B16 [8] = assay: Antitumor activity of 11.9 mg/kg of intravenously administered compound against B16 melanoma BL6 cells implanted into mice, value reported is percent compared to control; assay type: functional, Mus musculus; settings: route intravenous
B16 [9] = assay: Antitumor activity of 11.9 mg/kg of perorally administered compound against B16 melanoma BL6 cells implanted into mice, value reported is percent compared to control; assay type: functional, Mus musculus; settings: route oral
Mus musculus [10] = assay: Antitumor activity of 17.8 mg/kg of intravenously administered compound against B16 melanoma BL6 cells implanted into mice, value reported is percent compared to control; assay type: functional; settings: route intravenous
B16 [11] = assay: Antitumor activity of 17.8 mg/kg of perorally administered compound against B16 melanoma BL6 cells implanted into mice, value reported is percent compared to control; assay type: functional, Mus musculus; settings: route oral
Mus musculus [12] = assay: Antitumor activity of 26.7 mg/kg of intravenously administered compound against B16 melanoma BL6 cells implanted into mice, value reported is percent compared to control; assay type: functional; settings: route intravenous
Mus musculus [13] = assay: Antitumor activity of 26.7 mg/kg of perorally administered compound against B16 melanoma BL6 cells implanted into mice, value reported is percent compared to control; assay type: functional; settings: route oral
Mus musculus [14] = assay: Antitumor activity of 7.9 mg/kg of intravenously administered compound against B16 melanoma BL6 cells implanted into mice, value reported is percent compared to control; assay type: functional; settings: route intravenous
Mus musculus [15] = assay: Maximum rate of body weight loss after intravenous administration of 26.7 mg/kg of compound in mice; assay type: functional
Mus musculus [16] = assay: Maximum rate of body weight loss after intravenous administration of 7.9 mg/kg of compound in mice; assay type: functional
Mus musculus [17] = assay: Maximum rate of body weight loss after peroral administration of 11.9 mg/kg of compound in mice; <0 indicates no weight loss; assay type: functional; settings: route oral
Mus musculus [18] = assay: Effective dose of intravenously administered compound against B16 melanoma BL6 cells implanted into mice; range is 7.9-17.8; assay type: functional; settings: B16, iv
Mus musculus [19] = assay: Effective dose of perorally administered compound against B16 melanoma BL6 cells implanted into mice; range is 11.9-26.7; assay type: functional; settings: B16, po
Mus musculus [20] = assay: Number of mice died at 11.9 mg/kg of intravenous dose, among the total 6 mice tested; assay type: functional
Mus musculus [21] = assay: Number of mice died at 11.9 mg/kg of peroral dose, among the total 6 mice tested; assay type: functional; settings: route oral
Mus musculus [22] = assay: Number of mice died at 17.8 mg/kg of intravenous dose among the total 6 mice tested; assay type: functional
Mus musculus [23] = assay: Number of mice died at 17.8 mg/kg of peroral dose among the total 6 mice tested; assay type: functional; settings: route oral
Mus musculus [24] = assay: Number of mice died at 26.7 mg/kg of intravenous dose of compound among the total 6 mice tested; assay type: functional
Mus musculus [25] = assay: Number of mice died at 26.7 mg/kg of peroral dose of compound among the total 6 mice tested; assay type: functional; settings: route oral
Mus musculus [26] = assay: Number of mice died at 40.0 mg/kg of peroral dose of compound among the total 6 mice tested; assay type: functional; settings: route oral
Mus musculus [27] = assay: Number of mice died at 7.9 mg/kg of intravenous dose of compound among the total 6 mice tested; assay type: functional
PC-6 [28] = assay: Concentration required to inhibit human PC-6/VCR29-9 cell line growth by 50% at 72 hr exposure; assay type: functional; settings: PC-6, 72 h
B16 [29] = assay: Effective dose of perorally administered compound against B16 melanoma BL6 cells implanted into mice; assay type: functional; settings: Mus musculus
B16 [30] = assay: Effective dose of intravenously administered compound against B16 melanoma BL6 cells implanted into mice; assay type: functional; settings: Mus musculus, B16, iv
Mus musculus [31] = assay: Maximum rate of body weight loss after intravenous administration of 11.9 mg/kg of compound in mice; assay type: functional
Mus musculus [32] = assay: Maximum rate of body weight loss after peroral administration of 7.9 mg/kg of compound in mice; <0 indicates no body weight loss; assay type: functional; settings: route oral
Mus musculus [33] = assay: Antitumor activity of 7.9 mg/kg of perorally administered compound against B16 melanoma BL6 cells implanted into mice, value reported is percent compared to control; assay type: functional; settings: route oral
Mus musculus [34] = assay: Maximum rate of body weight loss after intravenous administration of 7.9 mg/kg of compound in mice; <0 indicates no weight loss; assay type: functional
Mus musculus [35] = assay: Maximum rate of body weight loss after peroral administration of 11.9 mg/kg of compound in mice; <0 indicates no body weight loss; assay type: functional; settings: route oral
Mus musculus [36] = assay: Effective dose of perorally administered compound against B16 melanoma BL6 cells implanted into mice; range is 7.9-17.8; assay type: functional; settings: B16, po
Mus musculus [37] = assay: Number of mice died at 7.9 mg/kg of peroral dose of compound among the total 6 mice tested; assay type: functional; settings: route oral

GI50 (P388): 0.06 ng/mL (≈ 0.0701 nM)
SMILES: CC(=O)O[C@@]12CO[C@@H]1CC[C@@]1(C)[C@@H]3O[C@H](CN(C)C)O[C@@H]3C3=C(C)[C@@H](OC(=O)[C@H](O)[C@@H](NC(=O)OC(C)(C)C)c4cscn4)C[C@@](O)([C@@H](OCc4ccccc4)[C@@H]12)C3(C)C
GI50 (PC-6 [1]): 0.35 ng/mL (≈ 0.409 nM)
GI50 (PC-6 [2]): 1.1 ng/mL (≈ 1.28 nM)
GI50 (PC-6 [3]): 17.3 ng/mL (≈ 20.2 nM)
GI50 (PC-12): 0.19 ng/mL (≈ 0.222 nM)

SMILES: CC(=O)O[C@@]12CO[C@@H]1CC[C@@]1(C)[C@@H]3O[C@H](CN4CCOCC4)O[C@@H]3C3=C(C)[C@@H](OC(=O)[C@H](O)[C@@H](NC(=O)OC(C)(C)C)c4nccs4)C[C@@](O)([C@@H](OCc4ccccc4)[C@@H]12)C3(C)C
BWLmax (Mus musculus [4]): <0%
BWLmax (Mus musculus [5]): 7.1%
BWLmax (Mus musculus [6]): 8.8%
BWLmax (Mus musculus [7]): 10%
IR (B16 [8]): 85.7%
IR (B16 [9]): 77.9%
IR (Mus musculus [10]): 96.9%
IR (B16 [11]): 97%
IR (Mus musculus [12]): 98.3%
IR (Mus musculus [13]): 97.8%
IR (Mus musculus [14]): 79.1%
BWLmax (Mus musculus [15]): 15%
BWLmax (Mus musculus [16]): 1.5%
BWLmax (Mus musculus [17]): <0%
ED50 (Mus musculus [18]): 17.8 mg/kg
ED50 (Mus musculus [19]): 26.7 mg/kg
Mortality (Mus musculus [20]): 0
Mortality (Mus musculus [21]): 0
Mortality (Mus musculus [22]): 0
Mortality (Mus musculus [23]): 0
Mortality (Mus musculus [24]): 2
Mortality (Mus musculus [25]): 0
Mortality (Mus musculus [26]): 6
Mortality (Mus musculus [27]): 0
GI50 (P388): 0.06 ng/mL (≈ 0.0668 nM)
GI50 (PC-6 [1]): 0.12 ng/mL (≈ 0.134 nM)
GI50 (PC-6 [3]): 19.7 ng/mL (≈ 21.9 nM)
GI50 (PC-12): 0.13 ng/mL (≈ 0.145 nM)
GI50 (PC-6 [28]): 1.37 ng/mL (≈ 1.53 nM)

GI50 (P388): 0.73 ng/mL (≈ 0.881 nM)
SMILES: CC(=O)O[C@@]12CO[C@@H]1CC[C@@]1(C)[C@@H]3O[C@H](CN(C)C)O[C@@H]3C3=C(C)[C@@H](OC(=O)[C@H](O)[C@@H](NC(=O)OC(C)(C)C)C(C)(C)C)C[C@@](O)([C@@H](OCc4ccccc4)[C@@H]12)C3(C)C
ED50 (B16 [29]; B16, po): 11.9 mg/kg
ED50 (B16 [30]): 11.9 mg/kg
GI50 (PC-6 [1]): 0.67 ng/mL (≈ 0.808 nM)
GI50 (PC-6 [3]): 15.7 ng/mL (≈ 18.9 nM)
GI50 (PC-12): 0.5 ng/mL (≈ 0.603 nM)
GI50 (PC-6 [28]): 1.42 ng/mL (≈ 1.71 nM)

GI50 (P388): 0.04 ng/mL (≈ 0.0445 nM)
SMILES: CC(=O)O[C@@]12CO[C@@H]1CC[C@@]1(C)[C@@H]3O[C@H](CN4CCOCC4)O[C@@H]3C3=C(C)[C@@H](OC(=O)[C@H](O)[C@@H](NC(=O)OC(C)(C)C)c4cncs4)C[C@@](O)([C@@H](OCc4ccccc4)[C@@H]12)C3(C)C
ED50 (B16 [29]): None
ED50 (B16 [30]): 7.9 mg/kg
GI50 (PC-6 [1]): 0.07 ng/mL (≈ 0.0779 nM)
GI50 (PC-6 [2]): 0.66 ng/mL (≈ 0.735 nM)
GI50 (PC-6 [3]): 20.5 ng/mL (≈ 22.8 nM)
GI50 (PC-12): 0.12 ng/mL (≈ 0.134 nM)

GI50 (P388): 0.6 ng/mL (≈ 0.718 nM)
SMILES: CNC[C@@H]1O[C@@H]2C3=C(C)[C@@H](OC(=O)[C@H](O)[C@@H](NC(=O)OC(C)(C)C)c4ccccn4)C[C@@](O)([C@@H](OCc4ccccc4)[C@H]4[C@@](C)(CC[C@H]5OC[C@]54OC(C)=O)[C@@H]2O1)C3(C)C
GI50 (PC-6 [1]): 0.54 ng/mL (≈ 0.646 nM)
GI50 (PC-6 [3]): 265 ng/mL (≈ 317 nM)
GI50 (PC-12): 5.82 ng/mL (≈ 6.96 nM)
GI50 (PC-6 [28]): 43.2 ng/mL (≈ 51.7 nM)

SMILES: COc1ccc([C@H](NC(=O)OC(C)(C)C)[C@@H](O)C(=O)O[C@H]2C[C@@]3(O)[C@@H](OCc4ccccc4)[C@H]4[C@@](C)(CC[C@H]5OC[C@]54OC(C)=O)[C@@H]4O[C@H](CN5CCOCC5)O[C@@H]4C(=C2C)C3(C)C)nc1
ED50 (B16 [29]; B16, po): 13.3 mg/kg
ED50 (B16 [30]): 5.9 mg/kg

SMILES: CC(=O)O[C@@]12CO[C@@H]1CC[C@@]1(C)[C@@H]3O[C@H](CN(C)C)O[C@@H]3C3=C(C)[C@@H](OC(=O)[C@H](O)[C@@H](NC(=O)OC(C)(C)C)c4ccccn4)C[C@@](O)([C@@H](OCc4ccccc4)[C@@H]12)C3(C)C
BWLmax (Mus musculus [31]): 1%
BWLmax (Mus musculus [5]): 8.6%
BWLmax (Mus musculus [6]): 8.8%
BWLmax (Mus musculus [7]): 13.1%
BWLmax (Mus musculus [32]): <0%
IR (B16 [8]): 95%
IR (B16 [9]): 88.8%
IR (Mus musculus [10]): 97.7%
IR (B16 [11]): 97%
IR (Mus musculus [13]): 97.5%
IR (Mus musculus [14]): 82.3%
IR (Mus musculus [33]): 72.8%
BWLmax (Mus musculus [34]): <0%
BWLmax (Mus musculus [35]): <0%
ED50 (Mus musculus [18]): 17.8 mg/kg
ED50 (Mus musculus [36]): 17.8 mg/kg
Mortality (Mus musculus [20]): 0
Mortality (Mus musculus [21]): 0
Mortality (Mus musculus [22]): 0
Mortality (Mus musculus [23]): 0
Mortality (Mus musculus [24]): 6
Mortality (Mus musculus [25]): 1
Mortality (Mus musculus [27]): 0
Mortality (Mus musculus [37]): 0
GI50 (P388): 0.41 ng/mL (≈ 0.482 nM)
GI50 (PC-6 [1]): 0.38 ng/mL (≈ 0.447 nM)
GI50 (PC-6 [3]): 54.2 ng/mL (≈ 63.8 nM)
GI50 (PC-12): 0.74 ng/mL (≈ 0.871 nM)
GI50 (PC-6 [28]): 4.04 ng/mL (≈ 4.75 nM)
